# In patent US20140018353A1, “METHOD OF TREATING B-CELL MALIGNANT CANCERS AND T-CELL MALIGNANT CANCERS USING THIENOTRIAZOLODIAZEPINE COMPOUNDS” (Oncoethix SA, priority 2012, published 2014):
# pIC50: −log10 of the molar value. “Also recorded” adds a separate entry of the source.
# Tests used:
# [1] = system: MYC mRNA in MM cell lines; conditions: reported; cited from earlier work
# DoHH2 = assay: MTT proliferation assay, 72 h; type: cell-based; conditions: Homo sapiens, DOHH-2, DoHH2 (DLBCL), read-out: estimated IC50
# Experimental: (§1) The activity of Formula 2 was evaluated in four mantle cell lymphoma (MCL), ten diffuse large B-cell lymphoma (DLBCL) established human cell lines, a set of multiple myeloma (MM) cell lines, three splenic marginal zone lymphoma (SMZL) cell lines and eight anaplastic large T-cell lymphoma (ALCL) cell lines. Cells were exposed to increasing doses of the compound for 72 hours.
# (§2) The proliferation assay was performed using the following procedure. Cells were seeded into 96-well plates at the density of 104 per well. Formula 2 (Oncoethix SA, Lausanne, Switzerland) was dissolved in DMSO as a stock solution of 10 mM and divided in aliquots stored at −80° C. For each experiment, an aliquot of the stock solution was thawed and used within 2 to 3 days. Formula 2 was serially diluted in tissue culture media, added to cells (in five replicates) and incubated for 72 hours at 37° C. Control cells were treated with equal amounts of DMSO. The 3-(4,5-dimethylthiazol-2-yl)-2,5-diphenyltetrazolium bromide (MTT) (Sigma, Buchs, Switzerland) was prepared as a stock of 5 mg/mL in phosphate-buffered saline (PBS) and filter-sterilized. An amount of MTT solution equal to 0.5 mg/mL was then added to each well and incubated in the dark at 37° C. for 4 hours. Cells were then lysed with 25% sodium dodecylsulfate (SDS) lysis buffer and absorbance was read at 570 nm on a Beckman Coulter-AD340 instrument. Three independent experiments were run for each cell line. The doses corresponding to the IC50 were estimated by fitting a sigmoidal model through the dose response curve using the R statistical package (R: A Language and Environment for Statistical Computing, R Foundation for Statistical Computing, Vienna, Austria).
# Granta-519 = assay: MTT proliferation assay, 72 h; type: cell-based; conditions: Homo sapiens, Granta-519 (MCL), read-out: estimated IC50
# Experimental: as §1, §2
# JeKo-1 = assay: MTT proliferation assay, 72 h; type: cell-based; conditions: Homo sapiens, JeKo-1 (MCL), read-out: estimated IC50
# Experimental: as §1, §2
# Karpass 422 = assay: MTT proliferation assay, 72 h; type: cell-based; conditions: Homo sapiens, Karpass 422 (DLBCL), read-out: estimated IC50
# Experimental: as §1, §2
# MAVER-1 = assay: MTT proliferation assay, 72 h; type: cell-based; conditions: Homo sapiens, Maver1, MAVER-1 (MCL), read-out: estimated IC50
# Experimental: as §1, §2
# MM1S = assay: MTT proliferation assay, 72 h; type: cell-based; conditions: Homo sapiens, MM1.S, MM1S (MM), read-out: estimated IC50
# Experimental: as §1, §2
# OCI-Ly7 = assay: MTT proliferation assay, 72 h; type: cell-based; conditions: Homo sapiens, OCI-Ly7 (DLBCL), read-out: estimated IC50
# Experimental: as §1, §2
# RPMI8226 = assay: MTT proliferation assay, 72 h; type: cell-based; conditions: Homo sapiens, RPMI-8226, RPMI8226 (MM), read-out: estimated IC50
# Experimental: as §1, §2
# Rec-1 = assay: MTT proliferation assay, 72 h; type: cell-based; conditions: Homo sapiens, Rec1, Rec-1 (MCL), read-out: estimated IC50
# Experimental: as §1, §2
# SU-DHL-2 = assay: MTT proliferation assay, 72 h; type: cell-based; conditions: Homo sapiens, SU-DHL-2 (DLBCL), read-out: estimated IC50
# Experimental: as §1, §2
# SU-DHL-4 = assay: MTT proliferation assay, 72 h; type: cell-based; conditions: Homo sapiens, SU-DHL-4 (DLBCL), read-out: estimated IC50
# Experimental: as §1, §2
# SU-DHL-5 = assay: MTT proliferation assay, 72 h; type: cell-based; conditions: Homo sapiens, SU-DHL-5 (DLBCL), read-out: estimated IC50
# Experimental: as §1, §2
# SU-DHL-6 = assay: MTT proliferation assay, 72 h; type: cell-based; conditions: Homo sapiens, SU-DHL-6 (DLBCL), read-out: estimated IC50
# Experimental: as §1, §2
# SU-DHL-7 = assay: MTT proliferation assay, 72 h; type: cell-based; conditions: Homo sapiens, SU-DHL-7 (DLBCL), read-out: estimated IC50
# Experimental: as §1, §2
# U-2932 = assay: MTT proliferation assay, 72 h; type: cell-based; conditions: Homo sapiens, U2932, U-2932 (DLBCL), read-out: estimated IC50
# Experimental: as §1, §2
# U266 = assay: MTT proliferation assay, 72 h; type: cell-based; conditions: Homo sapiens, U-266, U266 (MM), read-out: estimated IC50
# Experimental: as §1, §2
# DLBCL cell lines [2] = assay: MTT proliferation assay, 72 h; type: cell-based, human; conditions: for pIC50: Homo sapiens
# Experimental: as §1, §2
# MCL cell lines = assay: MTT proliferation assay, 72 h; type: cell-based, human; conditions: three MCL cell lines
# Experimental: as §1, §2
# MM cell lines [3] = assay: MTT proliferation assay, 72 h; type: cell-based, human; conditions: all MM cell lines
# Experimental: as §1, §2
# VAL = assay: MTT proliferation assay, 72 h; type: cell-based, human
# Experimental: as §1, §2
# SMZL cell lines = assay: MTT proliferation assay; type: cell-based, human; conditions: three SMZL cell lines
# Experimental: as §1
# as §2, with “An amount of MTT solution equal to 0.5 mg/mL was then added to each well and incubated in the dark at 37° C. for 4 hours.” left out, “Three independent experiments were run for each cell line. The doses corresponding to the IC50 were estimated by fitting a sigmoidal model through the dose response curve using the R statistical package (R: A Language and Environment for Statistical Computing, R Foundation for Statistical Computing, Vienna, Austria).” left out
# The activity of Formula 2 was also evaluated in SMZL cell lines using the procedures described in Example 1. […]
# ALCL cell lines = assay: MTT proliferation assay; type: cell-based, human; conditions: eight ALCL cell lines
# Experimental: as §1
# as §2, with “An amount of MTT solution equal to 0.5 mg/mL was then added to each well and incubated in the dark at 37° C. for 4 hours.” left out, “Three independent experiments were run for each cell line. The doses corresponding to the IC50 were estimated by fitting a sigmoidal model through the dose response curve using the R statistical package (R: A Language and Environment for Statistical Computing, R Foundation for Statistical Computing, Vienna, Austria).” left out
# The activity of Formula 2 was also evaluated in ALCL cell lines using the procedures described in Example 1. […]
# DLBCL cell lines [4] = assay: Cell death, propidium iodide flow cytometry; type: cell-based, human; conditions: 24 and 72 hours, 0.1-15 μM; SU-DHL-2 and DoHH2
# Experimental: Cell death was evaluated as follows. […], harvested and washed once in PBS and then stained with propidium iodide (PI 1 μg/ml, Sigma) in PBS and analyzed using a FACScan flow cytometer (Becton Dickinson, Mountain View, Calif., USA). The analysis of the percentage of cell death was performed using CellQuest Pro software (Becton Dickinson).
# DLBCL cell lines [5] = assay: Cell cycle analysis, flow cytometry; type: cell-based, human; conditions: five DLBCL cell lines, 24 h
# Experimental: (§3) Cell cycle analysis was performed using the following procedure. Cells were treated with DMSO or different doses of Formula 2 for 24 hours, harvested and washed once in PBS and then fixed in 80% ethanol at 4° C. for at least one hour. Cells were stained with propidium iodide (PI 50 μg/ml, Sigma) in PBS containing RNAse-A (75 kU/ml, Sigma) and analyzed for DNA content using a FACScan flow cytometer (Becton Dickinson). Cell cycle analysis was performed using the ModFit LT software package (Verity Software House, Inc., Topsham, Me., USA).
# Not having observed the induction of massive cell death despite the important effect on cell viability, the effect of Formula 2 on the cell cycle was investigated (FIG. 6). […] FIG. 7 illustrates representative flow cytometry profiles of untreated control cells and SU-DHL-6 cells treated for 24 hours with 0.2 in μM of Formula 2.
# [6] = system: c-MYC mRNA in DLBCL cell lines; assay: c-MYC mRNA levels, real-time PCR; type: cell-based, human
# Experimental: (§4) RNA was extracted using the RNA easy kit (Qiagen AG, Hombrechtikon, Switzerland). The concentration of total RNA was determined spectrophotometrically at 260 nm using a NanoDrop spectrometer (NanoDrop Technologies, Wilmington, Del., USA). One microgram of total RNA was reverse-transcribed using the Superscript First-Strand Synthesis System for real-time PCR kit (Invitrogen, Karlsruhe, Germany) according to the manufacturer's instructions. PCR amplification was performed using Fast SYBR Green Master Mix on a StepOnePlus real-time PCR System (Applied Biosystems, Foster City, Calif., USA). Primer sets (Table 2) were designed using the Primer3 software package (Rozen, S., Skaletsky, H. Primer3 on the WWW for general users and for biologist programmers. In: Misener, S., Krawetz, S. A., Eds. Methods in Molecular Biology, Vol. 132: Bioinformatics Methods and Protocols. Totowa, N.J., USA: Humana Press Inc., 2000, pp. 365-386). All samples were analyzed in triplicate. The relative quantity of the specific mRNA for each sample was calculated based on mean cycle threshold (Ct) values using the delta-delta Ct with a correction for experimental variations by normalization to the housekeeping gene GAPDH.
# [7] = system: NFκB target genes in DLBCL cell lines; assay: NFκB target gene expression; type: cell-based, human; conditions: two DLBCL cell lines
# Experimental: as §4
# BRD4 co-activates transcriptional activation of NF-B via specific binding to acetylated ReIA. […]
# MM cell lines [8] = assay: Cell death, propidium iodide flow cytometry; type: cell-based, human
# Experimental: Cell death was evaluated as follows. Cells were treated with DMSO or different doses of Formula 2 for 72 hours, harvested and washed once in PBS and then stained with propidium iodide (PI 1 μg/ml, Sigma) in PBS and analyzed using a FACScan flow cytometer (Becton Dickinson, Mountain View, Calif., USA). The analysis of the percentage of cell death was performed using CellQuest Pro software (Becton Dickinson).
# (§5) The activity of Formula 2 was also evaluated in MM cell lines. […] All the BRD factors were expressed (FIG. 14).
# MM cell lines [9] = assay: Cell cycle analysis, flow cytometry; type: cell-based, human; conditions: two of the three MM cell lines
# Experimental: as §3, §5
# [10] = system: MYC mRNA in MM cell lines; assay: MYC mRNA levels, real-time PCR; type: cell-based, human; conditions: RPMI8226 and MM1S cell lines, 24 hours
# Experimental: as §4
# MM cell lines [11] = assay: % Annexin V positive cells; type: cell-based, human; conditions: doses at IC50, 24 hours
# Experimental: FIG. 18 illustrates the % Annexin V positive cells obtained after doses of Formula 2 at IC50 and 24 hours.
# c-MYC in ALCL cell lines = assay: c-MYC mRNA levels, real-time PCR; type: cell-based, human; conditions: 8 and 24 hours of treatment
# Experimental: as §4
# FIGS. 25A-25E illustrate c-MYC levels in ALCL cell lines after 8 hours of treatment with Formula 2. FIG. 26 illustrates c-MYC levels in ALCL cell lines after 24 hours of treatment with Formula 2.
compound,measurement,setting,value
Cc1sc2c(c1C)C(c1ccc(Cl)cc1)=N[C@@H](CC(=O)OC(C)(C)C)c1nnc(C)n1-2 [JQ1],MYC levels,[1],down-regulation of MYC
"Cc1sc2c(c1C)C(c1ccc(Cl)cc1)=N[C@@H](CC(=O)Nc1ccc(O)cc1)c1nnc(C)n1-2 [Formula 2, (S)-2-[4-(4-chlorophenyl)-2,3,9-trimethyl-6H-thieno[3,2-f][1,2,4]triazolo-[4,3-a][1,4]diazepin-6-yl]-N-(4-hydroxyphenyl)acetamide]",pIC50,DoHH2,7.05
same,pIC50,Granta-519,< 4.82
same,pIC50,JeKo-1,5.55
same,pIC50,Karpass 422,6.56
same,pIC50,MAVER-1,5.91
same,pIC50,MM1S,7.23
same,pIC50,OCI-Ly7,5.86
same,pIC50,RPMI8226,6.15
same,pIC50,Rec-1,5.91
same,pIC50,SU-DHL-2,7.16
same,pIC50,SU-DHL-4,6.22
same,pIC50,SU-DHL-5,6.72
same,pIC50,SU-DHL-6,6.96
same,pIC50,SU-DHL-7,6.88
same,pIC50,U-2932,6.59
same,pIC50,U266,6.35
same,pIC50,DLBCL cell lines [2]; seven very sensitive DLBCL cell lines,> 6.52
same,pIC50,DLBCL cell lines [2]; two DLBCL cell lines,5.85 to 6.22
same,cell viability,DLBCL cell lines [2]; all the DLBCL cell lines,dose-dependent decrease in cell viability
same,pIC50,MCL cell lines; Homo sapiens,5.57 to 5.92
same,cell viability,MCL cell lines,dose-dependent decrease in cell viability
same,pIC50,MM cell lines [3]; Homo sapiens,6.15 to 7.22
same,cell viability,MM cell lines [3],reduction in cell viability in all the cell lines
same,pIC50,"VAL; Homo sapiens, VAL (DLBCL), MTT, 72 h, read-out: estimated IC50",< 4.90
same,reduction in cell proliferation,"VAL; VAL, doses of up to 10 μM",over 40%
same,cell viability,SMZL cell lines,dose-dependent decrease in cell viability
same,cell viability,ALCL cell lines,dose-dependent decrease in cell viability
same,cell death,DLBCL cell lines [4],induces cell death only in a small percentage of the cell
same,effect on the cell cycle,DLBCL cell lines [5],induced a G1-arrest in a dose-dependent manner
same,c-MYC mRNA levels,"[6]; six DLBCL cell lines, 24 hours of treatment",down-regulated in five of the six cell lines
same,c-MYC levels,"[6]; three DLBCL cell lines, 1 hour of treatment",down-regulation of c-MYC in two of three DLBCL cell lines
same,NFκB target genes expression,[7],partial down-regulation of NFκB target genes
same,cell death,MM cell lines [8],did not show an important increase of cell death
same,"cell cycle analysis, S-phase",MM cell lines [9],significant reduction of S-phase
same,MYC mRNA levels,[10],significant reduction of MYC mRNA levels in a dose-dependent manner; also recorded: down-regulation of c-MYC in a dose-dependent manner
same,cytostatic versus cytotoxic effect (% Annexin V positive cells),MM cell lines [11],cytostatic effect
same,c-MYC levels,c-MYC in ALCL cell lines,down-regulation of c-MYC in a dose-dependent manner
